Results from US10646595B2, “Porphyrin compounds and their use as MRI contrast agents” (THE GOVERNING COUNCIL OF THE UNIVERSITY OF TORONTO, priority 2013, dated 2020).
Read-outs that look alike come from different tables or passages of the source.

Experiments:
[1] = In vivo T1-weighted MRI in rats on 3T clinical scanner after intravenous injection; conditions: 0.05 mmol Mn/kg i.v.
From the text: (§1) MnPs MnTCP and (MnTPPS3)2 were administrated in rats and submitted for MRI studies on a 3T clinical scanner (Philips Achieva), with MnTPPS as a reference, and found to be efficient T1 CAs for in vivo applications, MnTCP and (MnTPPS3)2. A relatively low dose, 0.05 mmol Mn/kg (typical dose for clinical Gd-based CAs is ˜0.1 mmol Gd/kg) was chosen based on the in vitro relaxivity values described above.
(§2) The desired rapid clearance of MnTCP via renal filtration was further confirmed by urine sample analysis. The characteristic reddish color of MnPs was clearly visible by eye in the urine samples. The concentrations of MnPs can be accurately quantified by both UV-vis and Mn atomic absorption (Mn AA) spectroscopic analyses. Very high concentrations of MnP were detected in urine 60 minutes (11.7 μM) after injection. […] Moreover, a significant amount of MnTPPS (1.12 μM) could still be detected in urine 24 hours post-injection. […] The exclusion of the renal metabolic pathway for (MnTPPS3)2 was further confirmed by urine sample analysis.

[2] = Urine sample analysis by UV-vis and Mn atomic absorption after injection in rats; format: in vivo; conditions: 0.05 mmol Mn/kg i.v.
From the text: as §1, §2

[3] = T1 and T2 relaxivities and phantom images at 3 T on clinical MRI scanner; format: physicochemical; conditions: for r1 (T1 relaxivity): clinical MRI scanner, inversion-recovery spin-echo, 25° C. per FIG. 3
Experimental: (A) A schematic diagram of how the solutions are placed. (B) The corresponding phantom images produced by the 3 T scanner.
Relaxivities of MnPs at 3 T were measured on a clinical MRI scanner (Philips Achieva). Each of the four CAs were prepared in a series of increasing concentrations, 0, 0.05, 0.1, 0.2 and 0.5 mM, and imaged using an inversion-recovery spin-echo pulse sequence with varied inversion times TI and a multi-echo spin-echo sequence with varied echo times TE. […] The r1 values in Table 1 were derived by calculating T1 relaxation times from the inversion-recovery images and then linearly fitting the T1 relaxation rates to obtain the relaxivity r1. T2 relaxivities of the MnPs were also calculated and are listed in […]

[4] = NMRD profiles, field-dependent T1 relaxivity, field cycling NMR relaxometer 0 to 1 T; format: physicochemical; conditions: for T1 relaxivity per Mn(III) or Gd(III), NMRD comparison: fields above ~0.2 T, compared among MnTPPS, MnTCP, (MnTPPS3)2 and Gd-DTPA
Experimental: T1 relaxivity values were measured per Mn(III) or Gd(III) up to 1 T.

[5] = 37° C., cited from earlier work

Compound	time for relocation of majority of kidney enhancement into the bladder ([1]; 3 T MRI)	time to accumulation in the kidney ([1]; post injection, 3 T MRI) [min]	concentration in urine ([2]; 60 minutes after injection) [µM]	presence in urine sample ([2]; about 24 h post injection)	relaxivity compared with Gd-DTPA [3]	r1 (T1 relaxivity) [3] [mM⁻¹ s⁻¹]	T1 relaxivity, NMRD comparison ([4]; at clinical field strengths)	T1 relaxivity per Mn(III) or Gd(III), NMRD comparison [4]	relaxivity plateau ([5]; up to 1 T) [mM⁻¹ s⁻¹]	field of relaxivity peak [5] [T]	liver enhancement ([1]; 3 T MRI)	persistence of kidney T1 enhancement signal ([1]; 3 T MRI)	concentration in urine ([2]; 24 hours post-injection) [µM]	enhancement in the blood vessels and in the heart ([1]; 3 T MRI)	bladder enhancement ([1]; over the three days of the experimental period)	MnP signal in urine by Mn-AA or UV-vis ([2]; over the 72 hour post-injection period)	signal intensity on T1 weighted phantom images ([3]; 25° C., samples at the same concentration)	field of relaxivity peak ([4]; NMRD profile) [T]
O=C(O)c1c2nc(c(C(=O)O)c3ccc([n-]3)c(C(=O)O)c3nc(c(C(=O)O)c4ccc1[n-]4)C=C3)C=C2.[Cl-].[Mn+3] [MnTCP, [5,10,15,20-tetrakis(carboxy)porphyrinato]manganese(III) Chloride]	within an hour	≤ 10	11.7	Absence	significantly higher relaxivity than Gd-DTPA	7.90	lower relaxivity than MnTPPS	substantially higher than Gd-DTPA	–	–	–	–	–	–	–	–	–	–
MnTPPS [reference compound]	–	–	4.41	–	–	8.83	–	–	> 10	0.2	clear liver enhancement	still visible in the image 1 day post-injection	1.12	–	–	–	–	–
O=S(=O)([O-])c1ccc(C2=C3C=CC4=[N+]3[Mn]35[n]6c2ccc6C(c2ccc(S(=O)(=O)[O-])cc2)=C2C=CC(=[N+]23)C(c2ccc(S(=O)(=O)[O-])cc2)=c2ccc([n]25)=C4c2ccc(-c3ccc(C4=C5C=CC6=[N+]5[Mn]57[n]8c4ccc8C(c4ccc(S(=O)(=O)[O-])cc4)=C4C=CC(=[N+]45)C(c4ccc(S(=O)(=O)[O-])cc4)=c4ccc([n]47)=C6c4ccc(S(=O)(=O)[O-])cc4)cc3)cc2)cc1 (centres unmarked) [(MnTPPS3)2]	–	–	–	–	–	14.1	–	highest relaxivity per Mn	–	–	significant liver enhancement	–	–	relatively long-lasting enhancement	no bladder enhancement was detected	No MnP signal was found	highest signal intensity	~1
